Results as given in US8999956B2, “N-[(het)arylalkyl)] pyrazole(thio)carboxamides and their heterosubstituted analogues” (Bayer Intellectual Property GmbH, priority 2010, dated 2015).
Where two headings read alike, the source gives them in different places.

Columns and labels:
Aspergillus parasiticus = assay: microbe, parasite or virus in culture; type: cell-based
Pyrenophora teres = assay: In vivo preventive test on Pyrenophora teres (barley); conditions: 500 ppm of active ingredient, evaluated 7-9 days after inoculation
Method in brief: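 Preventive test: young barley plants received a water-diluted spray of compound formulated with DMF solvent plus alkylaryl polyglycol ether emulsifier, at the stated rate. Inoculation with an aqueous spore suspension of Pyrenophora teres followed one day after spraying.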

Alternaria solani = assay: In vivo preventive test on Alternaria solani (tomato); conditions: 500 ppm of active ingredient, evaluated 7 days after inoculation
Description: (§1) Solvent: 49 parts by weight of N,N-dimethylformamide Emulsifier: 1 part by weight of Alkylarylpolyglycolether To produce a suitable preparation of active compound, 1 part by weight of active compound is mixed with the stated amounts of solvent and emulsifier, and the concentrate is diluted with water to the desired concentration. To test for preventive activity, young plants are sprayed with the preparation of active compound at the stated rate of application. One day after this treatment, the plants are inoculated with an aqueous spore suspension of Alternaria solani.

[1] = tested on: aflatoxines produced by Aspergillus parasiticus; assay: microbe, parasite or virus in culture; type: cell-based
[2] = log P by HPLC on reversed-phase column (EEC Directive 79/831 Annex V.A8); type: physicochemical
Description: In table 1, the log P values were determined in accordance with EEC Directive 79/831 Annex V.A8 by HPLC (High Performance Liquid Chromatography) on a reversed-phase column (C18), using the method described below: Temperature: 40° C.; […]

Sphaerotheca fuliginea = assay: In vivo preventive test on Sphaerotheca fuliginea (cucumber); conditions: 500 ppm of active ingredient, evaluated 7 days after inoculation
Description: as §1, with “Sphaerotheca fuliginea. Then the plants are placed in a greenhouse at approximately 23° C. and a relative atmospheric humidity of approximately 70%.” for “Alternaria solani.”

Puccinia triticina = assay: In vivo preventive test on Puccinia triticina (wheat); conditions: for pest or weed control at 500 ppm: Puccinia triticina, 192 h, read-out: Efficacy
[3] = 500 ppm of active ingredient, evaluated 8 days after inoculation
[4] = Table K, 500 ppm of active ingredient, evaluated 8 days after inoculation
[5] = Table K6, dose 500 ppm, comparison with des-fluoro analogues

SMILES | % Inhibition of fungal growth at 50 μM (Aspergillus parasiticus) | Efficacy (Pyrenophora teres) | Efficacy (Alternaria solani) | % Inhibition of Aflatoxin at 50 μM [1] | logP [2] | Efficacy (Sphaerotheca fuliginea) | pest or weed control at 500 ppm (Puccinia triticina; [3]) | Efficacy (Puccinia triticina; 500 ppm of active ingredient, evaluated 8 days after inoculation, listed as example E-13 disclosed in patent application WO-2008/101976) | Efficacy (Puccinia triticina; [4]) | Efficacy (Puccinia triticina; [3]) | Efficacy (Puccinia triticina; [5]) | pest or weed control at 500 ppm (Puccinia triticina; [5])
CC(CCc1ccccc1Cl)NC(=O)c1c(C(F)F)nn(C)c1F (racemic) [Example 144] | 94% | 100% | 100% | 100% | 3.21 | 90% | – | – | – | – | – | –
Cc1cccc(C)c1CC(C)CNC(=O)c1c(C(F)F)nn(C)c1F (racemic) [Example 150] | 82% | 100% | 80% | 100% | 3.44 | 83% | – | – | – | – | – | –
CC(COc1ccc(Cl)cc1Cl)N(C(=O)c1cn(C)nc1C(F)F)C1CC1 (centres unmarked) [18 from WO-2010/012795, N-cyclopropyl-N-[1-(2,4-dichlorophenoxy)propan-2-yl]-3-(difluoromethyl)-1-methyl-1H-pyrazole-4-carboxamide, reference compound] | – | – | – | – | – | – | < 30% | – | – | – | – | –
Cc1nn(C)c(F)c1C(=O)N(C(C)CCc1ccc(Cl)c(Cl)c1)C1CC1 (centres unmarked) [E-13 from WO-2008/101976, N-cyclopropyl-N-[4-(3,4-dichlorophenyl)butan-2-yl]-5-fluoro-1,3-dimethyl-1H-pyrazole-4-carboxamide, reference compound] | – | – | – | – | – | – | 0% | no protection | – | – | – | –
CC(CCc1ccc(C(F)(F)F)cc1)NC(=O)c1c(C(F)F)nn(C)c1Cl (centres unmarked) [Example 70] | 78% | 100% | 95% | 97% | 3.63 | 75% | – | – | – | – | – | –
CC(CCc1ccc(C(F)(F)F)cc1)NC(=O)c1c(C(F)F)nn(C)c1F (centres unmarked) [Example 71] | 83% | 100% | 95% | 100% | 3.46 | 95% | – | – | – | – | – | –
CCC(CCc1sccc1Br)NC(=O)c1c(C(F)F)nn(C)c1F (centres unmarked) [Example 89] | 89% | 100% | 80% | 100% | 3.46 | 88% | – | – | – | – | – | –
Cc1cccc(C)c1OCC(C)N(C(=O)c1c(C(F)F)nn(C)c1F)C1CC1 (centres unmarked) [Example 155] | 100% | 100% | – | 100% | 3.94 | – | – | – | 90% | – | – | –
CN(CCCc1cc(Cl)ccc1Cl)C(=O)c1c(C(F)F)nn(C)c1F [Example 166] | 88% | 100% | 100% | 100% | 3.48 | – | – | – | 78% | – | – | –
CN(CCCc1cc(Cl)ccc1Cl)C(=O)c1c(C(F)F)nn(C)c1Cl [Example 167] | – | 80% | 100% | – | 3.62 | – | – | – | 70% | – | – | –
CC(CCc1cc(Cl)ccc1Cl)NC(=O)c1c(C(F)F)nn(C)c1F (centres unmarked) [Example 172] | 100% | 100% | 100% | 100% | 3.68 | 93% | – | – | – | – | – | –
CCC(COc1cc(Cl)ccc1Cl)NC(=O)c1c(C(F)F)nn(C)c1F (centres unmarked) [Example 175] | 92% | 95% | 95% | 100% | 3.83 | – | – | – | – | – | – | –
Cn1nc(C(F)F)c(C(=O)NC(C)(C)CCc2cc(Cl)ccc2Cl)c1F [Example 178] | 88% | 100% | 95% | 100% | 4.26 | – | – | – | – | – | – | –
Cn1nc(C(F)F)c(C(=O)NCCCc2ccc(Cl)cc2Cl)c1F [Example 180] | 100% | 100% | 90% | 100% | 3.46 | – | – | – | – | – | – | –
CC(N(C(=O)c1c(C(F)F)nn(C)c1Cl)C1CC1)C(C)(C)Cc1ccc(Cl)cc1Cl (centres unmarked) [Example 182] | 90% | 100% | 95% | 100% | 5.39 | 75% | – | – | – | – | – | –
CC(CCc1ccc(Cl)cc1Cl)N(C(=O)c1c(C(F)F)nn(C)c1Cl)C1CC1 (centres unmarked) [Example 183] | 79% | 100% | 95% | 82% | 4.72 | – | – | – | – | – | – | –

SMILES | % Inhibition of fungal growth at 50 μM (Aspergillus parasiticus) | Efficacy (Pyrenophora teres) | Efficacy (Alternaria solani) | % Inhibition of Aflatoxin at 50 μM [1] | logP [2] | Efficacy (Sphaerotheca fuliginea) | pest or weed control at 500 ppm (Puccinia triticina; [3]) | Efficacy (Puccinia triticina; 500 ppm of active ingredient, evaluated 8 days after inoculation, listed as example E-13 disclosed in patent application WO-2008/101976) | Efficacy (Puccinia triticina; [4]) | Efficacy (Puccinia triticina; [3]) | Efficacy (Puccinia triticina; [5]) | pest or weed control at 500 ppm (Puccinia triticina; [5])
CC(COc1ccc(Cl)cc1Cl)NC(=O)c1c(C(F)F)nn(C)c1F (centres unmarked) [Example 189] | 94% | 100% | 90% | 100% | 3.58 | – | – | – | – | – | – | –
CC(COc1ccc(Cl)cc1Cl)NC(=O)c1c(C(F)F)nn(C)c1Cl (centres unmarked) [Example 190] | 77% | 95% | 90% | 88% | 3.76 | – | – | – | – | – | – | –
CC(CSc1ccc(Cl)cc1Cl)NC(=O)c1c(C(F)F)nn(C)c1F (centres unmarked) [Example 191] | 100% | 100% | 95% | 100% | 3.76 | – | – | – | – | – | – | –
CC(CSc1ccc(Cl)cc1Cl)NC(=O)c1c(C(F)F)nn(C)c1Cl (centres unmarked) [Example 192] | 91% | 100% | 95% | 100% | 4.01 | – | – | – | – | – | – | –
Cn1nc(C(F)F)c(C(=O)NC(COc2ccc(Cl)cc2Cl)C2CC2)c1F (centres unmarked) [Example 193] | 92% | 94% | 95% | 100% | 3.92 | – | – | – | – | – | – | –
CC(CCc1c(Cl)cc(Cl)cc1Cl)N(C(=O)c1c(C(F)F)nn(C)c1Cl)C1CC1 (centres unmarked) [Example 214] | 93% | 100% | 80% | 100% | 4.31 | – | – | – | – | – | – | –
CC(CCc1ccccc1C(F)(F)F)N(C(=O)c1c(C(F)F)nn(C)c1Cl)C1CC1 (centres unmarked) [Example 220] | – | 100% | 95% | – | 4.26 | – | – | – | 90% | – | – | –
CCC(COc1cccc2ccccc12)NC(=O)c1c(C(F)F)nn(C)c1F (centres unmarked) [Example 222] | 78% | 90% | 90% | 91% | 3.71 | – | – | – | – | – | – | –
Cn1nc(C(F)F)c(C(=O)NC2CCCCC2Oc2ccccc2)c1Cl (centres unmarked) [Example 246] | – | – | – | – | 3.76 | – | – | – | 95% | – | – | –
Cc1cccc(OC2CCCC2NC(=O)c2c(C(F)F)nn(C)c2F)c1 (centres unmarked) [Example 259] | 82% | 78% | 90% | 97% | 3.52 | – | – | – | – | – | – | –
Cn1nc(C(F)F)c(C(=O)N(C[Si](C)(C)Cc2ccc(Cl)cc2Cl)C2CC2)c1Cl [Example 297] | 85% | 100% | 100% | 100% | 5.19 | – | – | – | – | – | – | –
CCC(C)C(C)N(C(=O)c1c(C(F)F)nn(C)c1Cl)C1CC1 (centres unmarked) [Example 303] | 90% | 100% | 80% | 100% | 3.52 | – | – | – | – | – | – | –
CCC1CCCCC1CNC(=O)c1c(C(F)F)nn(C)c1F (centres unmarked) [Example 364] | 81% | 80% | 95% | 99% | 3.49 | – | – | – | – | – | – | –
Cn1nc(C(F)F)c(C(=O)NC2CCCCC2C2CCCCC2)c1F (centres unmarked) [Example 374] | – | – | – | – | 4.34 | – | – | – | 100% | total protection | 100% | –
Cc1nn(C)c(F)c1C(=O)NC1CCCCC1C1CCCCC1 (centres unmarked) [compound CMP4, N-[1,1′-bi(cyclohexyl)-2-yl]-5-fluoro-1,3-dimethyl-1H-pyrazole-4-carboxamide, reference compound] | – | – | – | – | – | – | – | – | – | no protection | – | 0%
Cn1cc(C(=O)NC2CCCCC2C2CCCCC2)c(C(F)F)n1 (centres unmarked) [compound CMP5, N-[1,1′-bi(cyclohexyl)-2-yl]-3-(difluoromethyl)-1-methyl-1H-pyrazole-4-carboxamide, reference compound] | – | – | – | – | – | – | – | – | – | no protection | – | 0%
